Results reported in patent US20250313559A1 (Bayer Aktiengesellschaft, priority 2024, published 2025).

Experiments:
[1] = system: patients with HF and LVEF ≥40%; experiment: […]-HF (Example 2) safety: adverse events, hyperkalemia, serum potassium, eGFR, creatinine, vital signs; type: in vivo, human; conditions: number of patients (%); for Any Serious Adverse Events: treatment-emergent; for Elevated Serum Creatinine >[…] / Elevated Serum Creatinine ≥3.0 mg/dl / Elevated Serum Potassium >6.0 mmol/liter / Elevated Serum Potassium >[…] / Reduced Serum Potassium < […] / Systolic Blood Pressure <100 mm Hg: patients with at least one assessment
Description: Safety assessments includes adverse events (AEs), serious adverse events (SAEs), vital signs including heart rate and blood pressure assessment. Safety laboratory tests includes blood chemistry, hematology and urinalysis.
The following safety procedures and variables have been assessed during the study: • SAEs and AEs leading to discontinuation of treatment with study intervention; • Change in body weight from baseline; • Change in serum potassium from baseline; • Number of participants with hyperkalemia (serum potassium >5.5 mmol/L); • Number of participants with severe hyperkalemia (serum potassium >6.0 mmol/L); • Number of participants with hospitalization for hyperkalemia; • Number of participants permanently discontinuing study intervention due to Hyperkalemia; • Change in vital signs (heart rate, SBP and DBP) from baseline; • Change in renal function measured by eGFR (CKD-EPI formula) change from baseline; • Number of participants with hospitalization for worsening of renal function; • Number of participants permanently discontinuing study intervention due to worsening of renal function; and • Changes in laboratory values from baseline.
AEs that occurred or worsened after the first dose of study drug and up to 3 days after the last dose of study drug have been considered as treatment-emergent AEs (TEAEs).
An overall summary of all AEs and treatment emergent AEs (TEAEs) has been generated by treatment group. The number and percentage of patients with TEAEs, post-treatment AEs occurring more than 3 days after last intake of study intervention, treatment-emergent SAEs, treatment-emergent study intervention-related AEs, treatment-emergent study intervention-related SAEs, TEAEs causing premature and permanent discontinuation of study intervention, treatment-emergent non-serious AEs, TEAEs by maximum intensity, drug-related TEAEs by maximum intensity has been summarized by treatment group using Medical Dictionary for Regulatory Activity (MedDRA) terms grouped by Primary System Organ Class and Preferred Term.
The number of patients with treatment-emergent (until 3 days after last study intervention administration) abnormal laboratory values above or below the normal range has been tabulated by the laboratory parameter and treatment group.
Summary statistics including changes from baseline have been calculated by treatment group and visit for all quantitative laboratory parameters, i.e. for hematology, clinical chemistry and urinalysis. Geometric statistics and ratios to baseline has been presented for urinary albumin-to-creatinine ratio (UACR), creatinine, and NT-proBNP, instead of arithmetic statistics with changes from baseline.
The following special safety parameters have been further assessed by displaying the number and percentage of patients with safety events as described below by treatment group, visit, and for any time on treatment (including unscheduled assessments) and until 3 days after last study intervention administration. This has also been performed by stratification factors.

[2] = system: preclinical cardiorenal models; conditions: preclinical cardiorenal models which develop heart failure; cited from earlier work
[3] = No SGLT2i Use, finerenone n = 2,601

CCOc1ncc(C)c2c1[C@H](c1ccc(C#N)cc1OC)C(C(N)=O)=C(C)N2 [finerenone, (4S)-4-(4-cyano-2-methoxyphenyl)-5-ethoxy-2,8-dimethyl-1,4-dihydro-1,6-naphthyridine-3-carboxamide]
Any Adverse Events leading to Treatment Discontinuation [1, 3]: 90 (3.5%)
Hyperkalemia leading to Treatment Discontinuation [1, 3]: 12 (0.5%)
Investigator Reported Hyperkalemia [1, 3]: 246 (9.5%)
Investigator Reported Hyperkalemia leading to Hospitalization [1, 3]: 14 (0.5%)
Any Serious Adverse Events [1, 3]: 995 (38.3%)
Elevated Serum Creatinine >[…] ([1]; No SGLT2i Use): 120 (4.8%)
Elevated Serum Creatinine ≥3.0 mg/dl ([1]; No SGLT2i Use): 50 (2.0%)
Elevated Serum Potassium >6.0 mmol/liter ([1]; No SGLT2i Use): 76 (3.0%)
Elevated Serum Potassium >[…] ([1]; No SGLT2i Use): 358 (14.2%)
Reduced Serum Potassium < […] ([1]; No SGLT2i Use): 118 (4.7%)
Systolic Blood Pressure <100 mm Hg ([1]; No SGLT2i Use): 435 (17.2%)
Any Adverse Events leading to Treatment Discontinuation ([1]; SGLT2i Use, finerenone n = 392): 6 (1.5%)
Hyperkalemia leading to Treatment Discontinuation ([1]; SGLT2i Use, finerenone n = 392): 1 (0.3%)
Investigator Reported Hyperkalemia ([1]; SGLT2i Use, finerenone n = 392): 43 (11.0%)
Investigator Reported Hyperkalemia leading to Hospitalization ([1]; SGLT2i Use, finerenone n = 392): 2 (0.5%)
Any Serious Adverse Events ([1]; SGLT2i Use, finerenone n = 392): 162 (41.3%)
Elevated Serum Creatinine >[…] ([1]; SGLT2i Use): 21 (5.5%)
Elevated Serum Creatinine ≥3.0 mg/dl ([1]; SGLT2i Use): 7 (1.8%)
Elevated Serum Potassium >6.0 mmol/liter ([1]; SGLT2i Use): 10 (2.6%)
Elevated Serum Potassium >[…] ([1]; SGLT2i Use): 55 (14.5%)
Reduced Serum Potassium < […] ([1]; SGLT2i Use): 9 (2.4%)
Systolic Blood Pressure <100 mm Hg ([1]; SGLT2i Use): 103 (27.0%)
systolic and diastolic function [2]: improvement
